Tests used:
Experiment in all cases: relative viability (nuclei count vs DMSO), 5 days (fraction); higher = more cells survive
ABC-1 = system: ABC-1
Procedure, shortened: (§1)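 Relative viability divides the nuclei count in treated wells by that in vehicle wells. Lung cancer cell lines were seeded in 1536-well plates, dosed by pin tool the next day, and fixed and stained after 5 days in one step with final 0.05% Triton X-100, 1% formaldehyde and 1 ug/ml Hoechst. Dosing was a single drug or a fixed anchor-drug dose plus five library-drug doses (not always all listed) in √10 steps, and values are medians of duplicate plates imaged at 4×.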

NCI-H838 = system: NCI-H838
Procedure, shortened: as §1

NCI-H460 = system: NCI-H460
Procedure, shortened: as §1

PC-14 = system: PC-14
Procedure, shortened: as §1

UMC-11 = system: UMC-11
Procedure, shortened: as §1

HCC-15 = system: HCC-15
Procedure, shortened: as §1

NCI-H2085 = system: NCI-H2085
Procedure, shortened: as §1

NCI-H1651 = system: NCI-H1651
Procedure, shortened: as §1

NCI-H2009 = system: NCI-H2009
Procedure, shortened: as §1

NCI-H1993 = system: NCI-H1993
Procedure, shortened: as §1

NCI-H358 = system: NCI-H358
Procedure, shortened: as §1

NCI-H1915 = system: NCI-H1915
Procedure, shortened: as §1

EPLC-272H = system: EPLC-272H
Procedure, shortened: as §1

SW 1573 = system: SW 1573
Procedure, shortened: as §1

LC-2-ad = system: LC-2-ad
Procedure, shortened: as §1

NCI-H2126 = system: NCI-H2126
Procedure, shortened: as §1

HARA = system: HARA
Procedure, shortened: as §1

NCI-H650 = system: NCI-H650
Procedure, shortened: as §1

LU99A = system: LU99A
Procedure, shortened: as §1

NCI-H522 = system: NCI-H522
Procedure, shortened: as §1

NCI-H2347 = system: NCI-H2347
Procedure, shortened: as §1

COR-L23 = system: COR-L23
Procedure, shortened: as §1

NCI-H2342 = system: NCI-H2342
Procedure, shortened: as §1

C[C@@H]1CN(CC(=O)Nc2ccc3c(c2)Cc2cccc(-c4cc(=O)cc(N5CCOCC5)o4)c2S3)C[C@H](C)O1 + CCNC(=O)c1noc(-c2cc(C(C)C)c(O)cc2O)c1-c1ccc(CN2CCOCC2)cc1 [Luminespib] (partner 0.01 µM)
relative viability (ABC-1; first compound 0.1265 µM): 0.64
relative viability (ABC-1; first compound 0.4 µM): 0.633
relative viability (ABC-1; first compound 4 µM): 0.521
relative viability (NCI-H838; first compound 0.04 µM): 0.383
relative viability (NCI-H838; first compound 0.1265 µM): 0.278
relative viability (NCI-H838; first compound 0.4 µM): 0.286
relative viability (NCI-H838; first compound 4 µM): 0.258
relative viability (NCI-H460; first compound 0.04 µM): 0.0317
relative viability (NCI-H460; first compound 0.1265 µM): 0.0406
relative viability (NCI-H460; first compound 0.4 µM): 0.0348
relative viability (NCI-H460; first compound 4 µM): 0.0326
relative viability (PC-14; first compound 0.04 µM): 0.142
relative viability (PC-14; first compound 0.1265 µM): 0.122
relative viability (PC-14; first compound 0.4 µM): 0.15
relative viability (PC-14; first compound 4 µM): 0.144
relative viability (UMC-11; first compound 0.04 µM): 1.1
relative viability (UMC-11; first compound 0.1265 µM): 0.903
relative viability (UMC-11; first compound 0.4 µM): 1.03
relative viability (UMC-11; first compound 4 µM): 0.675
relative viability (HCC-15; first compound 0.04 µM): 0.358
relative viability (HCC-15; first compound 0.1265 µM): 0.282
relative viability (HCC-15; first compound 0.4 µM): 0.284
relative viability (HCC-15; first compound 4 µM): 0.27
relative viability (NCI-H2085; first compound 0.04 µM): 0.477
relative viability (NCI-H2085; first compound 0.1265 µM): 0.509
relative viability (NCI-H2085; first compound 0.4 µM): 0.404
relative viability (NCI-H2085; first compound 4 µM): 0.397
relative viability (NCI-H1651; first compound 0.04 µM): 0.891
relative viability (NCI-H1651; first compound 0.1265 µM): 0.719
relative viability (NCI-H1651; first compound 0.4 µM): 0.885
relative viability (NCI-H1651; first compound 4 µM): 0.634
relative viability (NCI-H2009; first compound 0.04 µM): 1.01
relative viability (NCI-H2009; first compound 0.1265 µM): 0.995
relative viability (NCI-H2009; first compound 0.4 µM): 0.983
relative viability (NCI-H2009; first compound 4 µM): 0.804
relative viability (NCI-H1993; first compound 0.04 µM): 0.872
relative viability (NCI-H1993; first compound 0.1265 µM): 0.913
relative viability (NCI-H1993; first compound 0.4 µM): 0.621
relative viability (NCI-H1993; first compound 4 µM): 0.762
relative viability (NCI-H358; first compound 0.04 µM): 0.429
relative viability (NCI-H358; first compound 0.1265 µM): 0.308
relative viability (NCI-H358; first compound 0.4 µM): 0.399
relative viability (NCI-H358; first compound 4 µM): 0.233
relative viability (NCI-H1915; first compound 0.04 µM): 0.761
relative viability (NCI-H1915; first compound 0.1265 µM): 0.686
relative viability (NCI-H1915; first compound 0.4 µM): 0.756
relative viability (NCI-H1915; first compound 4 µM): 0.68
relative viability (EPLC-272H; first compound 0.04 µM): 0.519
relative viability (EPLC-272H; first compound 0.1265 µM): 0.381
relative viability (EPLC-272H; first compound 0.4 µM): 0.26
relative viability (EPLC-272H; first compound 4 µM): 0.254
relative viability (SW 1573; first compound 0.04 µM): 0.215
relative viability (SW 1573; first compound 0.1265 µM): 0.386
relative viability (SW 1573; first compound 0.4 µM): 0.207
relative viability (SW 1573; first compound 4 µM): 0.366
relative viability (LC-2-ad; first compound 0.04 µM): 0.986
relative viability (LC-2-ad; first compound 0.1265 µM): 0.912
relative viability (LC-2-ad; first compound 0.4 µM): 0.979
relative viability (LC-2-ad; first compound 4 µM): 0.953
relative viability (NCI-H2126; first compound 0.04 µM): 1.04
relative viability (NCI-H2126; first compound 0.1265 µM): 0.881
relative viability (NCI-H2126; first compound 0.4 µM): 0.863
relative viability (NCI-H2126; first compound 4 µM): 0.744
relative viability (HARA; first compound 0.1265 µM): 0.675
relative viability (HARA; first compound 0.4 µM): 0.471
relative viability (HARA; first compound 4 µM): 0.89
relative viability (NCI-H650; first compound 0.04 µM): 0.836
relative viability (NCI-H650; first compound 0.1265 µM): 0.827
relative viability (NCI-H650; first compound 0.4 µM): 0.831
relative viability (NCI-H650; first compound 4 µM): 0.738
relative viability (LU99A; first compound 0.04 µM): 0.304
relative viability (LU99A; first compound 0.1265 µM): 0.192
relative viability (LU99A; first compound 0.4 µM): 0.26
relative viability (LU99A; first compound 4 µM): 0.231
relative viability (NCI-H522; first compound 0.1265 µM): 1.17
relative viability (NCI-H522; first compound 0.4 µM): 1.06
relative viability (NCI-H522; first compound 4 µM): 0.896
relative viability (NCI-H2347; first compound 0.04 µM): 0.926
relative viability (NCI-H2347; first compound 0.1265 µM): 0.475
relative viability (NCI-H2347; first compound 0.4 µM): 0.438
relative viability (NCI-H2347; first compound 4 µM): 0.534
relative viability (COR-L23; first compound 0.04 µM): 0.793
relative viability (COR-L23; first compound 0.1265 µM): 0.705
relative viability (COR-L23; first compound 0.4 µM): 0.729
relative viability (COR-L23; first compound 4 µM): 0.458
relative viability (NCI-H2342; first compound 0.04 µM): 0.706
relative viability (NCI-H2342; first compound 0.1265 µM): 0.641
relative viability (NCI-H2342; first compound 0.4 µM): 0.722
relative viability (NCI-H2342; first compound 4 µM): 0.662

Reference: the supplement of paper PMC10307832
